{"source": "paper PMC10905675", "about": "“INX-315, a Selective CDK2 Inhibitor, Induces Cell Cycle Arrest and Senescence in Solid Tumors” (Cancer Discovery, 2023)", "key": {"[1]": {"system": "ST4316B PDX", "assay": "PDX tumor growth", "format": "in vivo, mice", "settings": "monotherapy; ribociclib 50 mg/kg per day", "method": "(§1) PDX models were performed by Crown Biosciences (OV5398, GA0103, and GA0114) or XenoSTART (ST4316B). Tumor fragments from stock mice were harvested and implanted subcutaneously into the flank of NOD/SCID mice (OV5398, RRID:IMSR_JAX:001303), BALB/c nude mice (GA0103 and GA0114, RRID:IMSR_RJ:BALB-C-NUDE), or athymic nude mice (Crl:NU(NCr)-Foxn1nu, RRID:IMSR_CRL:490) (ST4316B). For CDX models, female athymic nude mice (Crl:NU(NCr)-Foxn1nu, RRID:IMSR_CRL:490) were inoculated with 1 × 10^7 50% Cultrex OVCAR3 cells in the flank. Experiments performed using MMTV-rtTA/tetO-HER2 mice were performed at the Peter MacCallum Cancer Centre. Tumor formation was induced and sustained in female mice with doxycycline as previously described ([33]). Randomization and treatment in all models began when median tumor volume reached a maximum of 300 mm^3.\n(§2) Mice were treated via oral gavage. INX-315 was prepared weekly in 100% PEG400; abemaciclib was prepared as previously described ([33]) and ribociclib (Selleckchem, S7440) was prepared weekly in 0.5% methyl cellulose. To generate abemaciclib-resistant MMTV-rtTA/tetO-HER2 tumors, mice were treated continuously with abemaciclib at a dose of 75 mg/kg until tumors resumed growth as described in text. At this point and in all other MMTV-rtTA/tetO-HER2 mice experiments, mice were randomized into treatment groups and abemaciclib was administered to indicated groups at a dose of 50 mg/kg. In all MMTV-rtTA/tetO-HER2 mice experiments, INX-315 was administered at a dose of 50 mg/kg twice daily. For PDX model ST4316B, ribociclib was administered at 50 mg/kg per day."}, "[2]": {"system": "gastric adenocarcinoma PDX GA0114", "assay": "PDX tumor growth", "format": "in vivo, mice", "settings": "100 mg/kg twice daily, 5-week experiment", "method": "as §1, §2"}, "[3]": {"system": "gastric adenocarcinoma PDX GA0103", "assay": "PDX tumor growth", "format": "in vivo, mice", "settings": "oral gavage, 56 days", "method": "as §1, §2"}, "[4]": {"target": "T1, NTRK3 (TRKC) (Homo sapiens, UniProt Q16288)", "T1 construct": "purchased Thermo Fisher Scientific SelectScreen (plus Nanosyn / Reaction Biology for CDK/cyclin lines)", "assay": "SelectScreen ZLYTE", "format": "biochemical", "settings": "INX-0315 at 100nM", "how_it_was_run": "(§3)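 A single-dose pass at 100 nmol/L INX-315 in 1% DMSO came first. Curves of 10 points from 1 µmol/L to 0.0495 nmol/L followed, using standard predetermined assay settings.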"}, "[5]": {"target": "T2, EGFR (ErbB1) G719C (Homo sapiens, UniProt P00533, G719C)", "T2 construct": "purchased Thermo Fisher Scientific SelectScreen (plus Nanosyn / Reaction Biology for CDK/cyclin lines)", "assay": "SelectScreen ZLYTE", "format": "biochemical", "settings": "INX-0315 at 100nM", "how_it_was_run": "as §3"}, "[6]": {"target": "T3, AMPK (A1/B2/G2) (Homo sapiens, UniProt Q13131)", "T3 construct": "purchased Thermo Fisher Scientific SelectScreen (plus Nanosyn / Reaction Biology for CDK/cyclin lines)", "assay": "SelectScreen ZLYTE", "format": "biochemical", "settings": "INX-0315 at 100nM", "how_it_was_run": "as §3"}, "[7]": {"target": "T4, MAP2K6 (MKK6) (Homo sapiens, UniProt P52564)", "T4 construct": "purchased Thermo Fisher Scientific SelectScreen (plus Nanosyn / Reaction Biology for CDK/cyclin lines)", "assay": "SelectScreen ZLYTE", "format": "biochemical", "settings": "INX-0315 at 100nM", "how_it_was_run": "as §3"}, "[8]": {"target": "T5, KIT V559D (Homo sapiens, UniProt P10721, V559D)", "T5 construct": "purchased Thermo Fisher Scientific SelectScreen (plus Nanosyn / Reaction Biology for CDK/cyclin lines)", "T5 sequence (P10721 26-976 V559D)": "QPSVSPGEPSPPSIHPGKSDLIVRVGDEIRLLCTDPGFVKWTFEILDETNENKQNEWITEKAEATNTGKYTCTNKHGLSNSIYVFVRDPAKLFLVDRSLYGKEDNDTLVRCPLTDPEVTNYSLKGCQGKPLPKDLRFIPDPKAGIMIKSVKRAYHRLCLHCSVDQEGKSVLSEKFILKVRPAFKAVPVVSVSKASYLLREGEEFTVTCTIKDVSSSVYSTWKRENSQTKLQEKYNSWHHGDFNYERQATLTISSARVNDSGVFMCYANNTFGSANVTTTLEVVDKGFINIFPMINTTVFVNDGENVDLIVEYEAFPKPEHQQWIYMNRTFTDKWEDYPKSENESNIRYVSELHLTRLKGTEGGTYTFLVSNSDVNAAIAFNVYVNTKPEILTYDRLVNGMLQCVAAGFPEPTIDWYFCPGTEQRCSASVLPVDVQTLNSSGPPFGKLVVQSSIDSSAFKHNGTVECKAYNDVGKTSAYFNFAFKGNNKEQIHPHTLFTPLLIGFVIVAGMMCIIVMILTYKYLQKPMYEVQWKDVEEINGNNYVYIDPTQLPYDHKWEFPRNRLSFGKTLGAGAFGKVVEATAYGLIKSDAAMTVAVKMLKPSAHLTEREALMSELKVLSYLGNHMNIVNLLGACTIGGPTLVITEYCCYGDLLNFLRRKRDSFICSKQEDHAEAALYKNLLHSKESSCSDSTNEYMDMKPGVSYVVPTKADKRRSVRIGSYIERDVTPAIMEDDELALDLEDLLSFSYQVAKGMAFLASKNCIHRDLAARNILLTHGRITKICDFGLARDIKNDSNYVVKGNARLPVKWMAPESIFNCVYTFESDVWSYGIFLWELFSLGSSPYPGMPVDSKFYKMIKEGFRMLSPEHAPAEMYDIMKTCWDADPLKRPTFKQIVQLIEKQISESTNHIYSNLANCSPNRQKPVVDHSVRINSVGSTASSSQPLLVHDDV", "assay": "SelectScreen ZLYTE", "format": "biochemical", "settings": "INX-0315 at 100nM", "how_it_was_run": "as §3"}, "[9]": {"target": "T6, MAP4K2 (GCK) (Homo sapiens, UniProt Q12851)", "T6 construct": "purchased Thermo Fisher Scientific SelectScreen (plus Nanosyn / Reaction Biology for CDK/cyclin lines)", "assay": "SelectScreen ZLYTE", "format": "biochemical", "settings": "INX-0315 at 100nM", "how_it_was_run": "as §3"}, "[10]": {"target": "T7, MAP4K5 (KHS1) (Homo sapiens, UniProt Q9Y4K4)", "T7 construct": "purchased Thermo Fisher Scientific SelectScreen (plus Nanosyn / Reaction Biology for CDK/cyclin lines)", "assay": "SelectScreen ZLYTE", "format": "biochemical", "settings": "INX-0315 at 100nM", "how_it_was_run": "as §3"}, "[11]": {"target": "T8, ROCK2 (Homo sapiens, UniProt O75116)", "T8 construct": "purchased Thermo Fisher Scientific SelectScreen (plus Nanosyn / Reaction Biology for CDK/cyclin lines)", "assay": "SelectScreen ZLYTE", "format": "biochemical", "settings": "INX-0315 at 100nM", "how_it_was_run": "as §3"}, "[12]": {"target": "T9, CSNK1E (CK1 epsilon) (Homo sapiens, UniProt P49674)", "T9 construct": "purchased Thermo Fisher Scientific SelectScreen (plus Nanosyn / Reaction Biology for CDK/cyclin lines)", "assay": "SelectScreen ZLYTE", "format": "biochemical", "settings": "INX-0315 at 100nM", "how_it_was_run": "as §3"}, "[13]": {"target": "T10, CAMK2D (CaMKII delta) (Homo sapiens, UniProt Q13557)", "T10 construct": "purchased Thermo Fisher Scientific SelectScreen (plus Nanosyn / Reaction Biology for CDK/cyclin lines)", "assay": "SelectScreen ZLYTE", "format": "biochemical", "settings": "INX-0315 at 100nM", "how_it_was_run": "as §3"}, "[14]": {"target": "T11, DCAMKL2 (DCK2) (Homo sapiens, UniProt Q8N568)", "T11 construct": "purchased Thermo Fisher Scientific SelectScreen (plus Nanosyn / Reaction Biology for CDK/cyclin lines)", "assay": "SelectScreen ZLYTE", "format": "biochemical", "settings": "INX-0315 at 100nM", "how_it_was_run": "as §3"}, "[15]": {"target": "T12, PIM2 (Homo sapiens, UniProt Q9P1W9)", "T12 construct": "purchased Thermo Fisher Scientific SelectScreen (plus Nanosyn / Reaction Biology for CDK/cyclin lines)", "assay": "SelectScreen ZLYTE", "format": "biochemical", "settings": "INX-0315 at 100nM", "how_it_was_run": "as §3"}, "[16]": {"target": "T13, RPS6KA4 (MSK2) (Homo sapiens, UniProt O75676)", "T13 construct": "purchased Thermo Fisher Scientific SelectScreen (plus Nanosyn / Reaction Biology for CDK/cyclin lines)", "assay": "SelectScreen ZLYTE", "format": "biochemical", "settings": "INX-0315 at 100nM", "how_it_was_run": "as §3"}, "[17]": {"target": "T14, FRAP1 (mTOR) (Homo sapiens, UniProt P42345)", "T14 construct": "purchased Thermo Fisher Scientific SelectScreen (plus Nanosyn / Reaction Biology for CDK/cyclin lines)", "assay": "SelectScreen ZLYTE", "format": "biochemical", "settings": "INX-0315 at 100nM", "how_it_was_run": "as §3"}, "[18]": {"target": "T15, EGFR (ErbB1) T790M C797S L858R (Homo sapiens, UniProt P00533, C797S/L858R/T790M)", "T15 construct": "purchased Thermo Fisher Scientific SelectScreen (plus Nanosyn / Reaction Biology for CDK/cyclin lines)", "T15 sequence (P00533 25-1210 T790M/C797S/L858R)": "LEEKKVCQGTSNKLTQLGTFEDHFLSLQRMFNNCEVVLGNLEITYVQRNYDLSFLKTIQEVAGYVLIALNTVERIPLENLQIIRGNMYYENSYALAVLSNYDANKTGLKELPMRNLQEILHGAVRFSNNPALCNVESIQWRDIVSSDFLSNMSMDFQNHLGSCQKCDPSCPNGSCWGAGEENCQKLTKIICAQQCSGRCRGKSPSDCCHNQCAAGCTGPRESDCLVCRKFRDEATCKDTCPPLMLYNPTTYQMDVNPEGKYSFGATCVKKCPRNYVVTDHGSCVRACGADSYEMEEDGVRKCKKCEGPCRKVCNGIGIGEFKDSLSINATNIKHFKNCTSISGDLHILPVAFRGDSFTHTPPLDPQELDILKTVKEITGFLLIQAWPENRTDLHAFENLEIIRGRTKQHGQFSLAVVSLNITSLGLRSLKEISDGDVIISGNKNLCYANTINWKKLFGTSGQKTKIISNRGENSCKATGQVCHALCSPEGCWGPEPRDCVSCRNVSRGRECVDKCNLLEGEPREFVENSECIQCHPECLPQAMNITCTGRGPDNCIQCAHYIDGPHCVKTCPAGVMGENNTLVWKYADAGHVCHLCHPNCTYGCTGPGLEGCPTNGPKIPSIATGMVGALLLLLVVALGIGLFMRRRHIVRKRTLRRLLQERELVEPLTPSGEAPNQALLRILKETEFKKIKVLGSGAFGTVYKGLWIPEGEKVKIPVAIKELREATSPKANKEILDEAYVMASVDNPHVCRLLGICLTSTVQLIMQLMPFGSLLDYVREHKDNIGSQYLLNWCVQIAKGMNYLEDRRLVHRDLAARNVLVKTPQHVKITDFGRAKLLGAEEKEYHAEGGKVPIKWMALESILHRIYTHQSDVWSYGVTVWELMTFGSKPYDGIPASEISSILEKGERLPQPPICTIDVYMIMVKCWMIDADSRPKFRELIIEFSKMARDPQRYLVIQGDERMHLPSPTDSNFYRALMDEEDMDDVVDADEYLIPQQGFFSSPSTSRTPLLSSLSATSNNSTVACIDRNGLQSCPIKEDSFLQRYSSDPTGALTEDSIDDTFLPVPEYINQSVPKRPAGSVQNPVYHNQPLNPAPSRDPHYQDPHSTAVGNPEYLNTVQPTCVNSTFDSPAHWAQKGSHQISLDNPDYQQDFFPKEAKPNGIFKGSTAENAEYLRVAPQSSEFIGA", "assay": "SelectScreen ZLYTE", "format": "biochemical", "settings": "INX-0315 at 100nM", "how_it_was_run": "as §3"}, "[19]": {"target": "T16, FGFR2 N549H (Homo sapiens, UniProt P21802, N549H)", "T16 construct": "purchased Thermo Fisher Scientific SelectScreen (plus Nanosyn / Reaction Biology for CDK/cyclin lines)", "assay": "SelectScreen ZLYTE", "format": "biochemical", "settings": "INX-0315 at 100nM", "how_it_was_run": "as §3"}, "[20]": {"target": "T17, BTK (Homo sapiens, UniProt Q06187)", "T17 construct": "purchased Thermo Fisher Scientific SelectScreen (plus Nanosyn / Reaction Biology for CDK/cyclin lines)", "assay": "SelectScreen ZLYTE", "format": "biochemical", "settings": "INX-0315 at 100nM", "how_it_was_run": "as §3"}, "[21]": {"target": "T18, CDC42 BPA (MRCKA) (Homo sapiens, UniProt Q5VT25)", "T18 construct": "purchased Thermo Fisher Scientific SelectScreen (plus Nanosyn / Reaction Biology for CDK/cyclin lines)", "T18 sequence (Q5VT25 whole entry)": "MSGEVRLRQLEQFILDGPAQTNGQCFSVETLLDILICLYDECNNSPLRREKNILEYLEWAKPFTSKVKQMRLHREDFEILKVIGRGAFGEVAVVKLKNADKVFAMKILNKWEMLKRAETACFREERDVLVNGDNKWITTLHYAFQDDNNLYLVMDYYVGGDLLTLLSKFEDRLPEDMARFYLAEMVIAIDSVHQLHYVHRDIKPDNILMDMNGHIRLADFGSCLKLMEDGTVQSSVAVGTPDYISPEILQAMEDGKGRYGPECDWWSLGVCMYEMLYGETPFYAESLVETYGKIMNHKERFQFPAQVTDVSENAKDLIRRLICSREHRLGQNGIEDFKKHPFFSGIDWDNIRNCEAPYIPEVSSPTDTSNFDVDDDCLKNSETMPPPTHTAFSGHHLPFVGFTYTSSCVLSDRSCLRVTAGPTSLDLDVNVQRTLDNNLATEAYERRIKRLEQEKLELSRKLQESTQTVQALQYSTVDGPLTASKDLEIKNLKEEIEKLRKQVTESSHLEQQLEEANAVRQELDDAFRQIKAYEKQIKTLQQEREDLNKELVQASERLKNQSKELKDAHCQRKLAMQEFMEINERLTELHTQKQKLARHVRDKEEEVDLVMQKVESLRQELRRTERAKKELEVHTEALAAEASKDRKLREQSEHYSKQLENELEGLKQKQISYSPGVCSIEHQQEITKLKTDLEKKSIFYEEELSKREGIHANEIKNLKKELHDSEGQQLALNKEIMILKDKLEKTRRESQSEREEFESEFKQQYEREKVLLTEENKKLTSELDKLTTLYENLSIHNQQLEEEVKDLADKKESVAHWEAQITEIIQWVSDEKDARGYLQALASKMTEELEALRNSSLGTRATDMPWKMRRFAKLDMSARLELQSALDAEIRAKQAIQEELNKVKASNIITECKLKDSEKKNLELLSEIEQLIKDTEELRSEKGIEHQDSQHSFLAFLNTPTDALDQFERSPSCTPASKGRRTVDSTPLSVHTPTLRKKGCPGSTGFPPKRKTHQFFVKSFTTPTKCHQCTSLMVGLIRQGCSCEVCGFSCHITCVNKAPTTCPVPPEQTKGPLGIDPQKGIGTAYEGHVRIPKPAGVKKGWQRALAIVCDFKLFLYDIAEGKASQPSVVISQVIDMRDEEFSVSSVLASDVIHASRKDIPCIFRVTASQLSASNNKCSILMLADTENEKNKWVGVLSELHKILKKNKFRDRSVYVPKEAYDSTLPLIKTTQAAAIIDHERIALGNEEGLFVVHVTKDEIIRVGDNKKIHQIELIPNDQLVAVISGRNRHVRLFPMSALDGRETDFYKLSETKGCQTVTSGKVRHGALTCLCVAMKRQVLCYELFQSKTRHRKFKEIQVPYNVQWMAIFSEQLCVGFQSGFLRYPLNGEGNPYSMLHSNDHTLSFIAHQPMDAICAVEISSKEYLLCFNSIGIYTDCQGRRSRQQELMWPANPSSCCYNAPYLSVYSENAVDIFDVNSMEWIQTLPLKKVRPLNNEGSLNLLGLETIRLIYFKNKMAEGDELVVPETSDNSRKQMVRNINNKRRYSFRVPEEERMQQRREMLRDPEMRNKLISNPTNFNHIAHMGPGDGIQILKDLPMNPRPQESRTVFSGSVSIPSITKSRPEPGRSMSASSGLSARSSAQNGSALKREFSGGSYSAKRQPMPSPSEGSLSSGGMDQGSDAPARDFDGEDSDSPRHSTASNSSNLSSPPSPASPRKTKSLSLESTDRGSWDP", "assay": "SelectScreen ZLYTE", "format": "biochemical", "settings": "INX-0315 at 100nM", "how_it_was_run": "as §3"}, "[22]": {"target": "T19, DYRK4 (Homo sapiens, UniProt Q9NR20)", "T19 construct": "purchased Thermo Fisher Scientific SelectScreen (plus Nanosyn / Reaction Biology for CDK/cyclin lines)", "assay": "SelectScreen ZLYTE", "format": "biochemical", "settings": "INX-0315 at 100nM", "how_it_was_run": "as §3"}, "[23]": {"target": "T20, PRKCA (PKC alpha) (Homo sapiens, UniProt P17252)", "T20 construct": "purchased Thermo Fisher Scientific SelectScreen (plus Nanosyn / Reaction Biology for CDK/cyclin lines)", "assay": "SelectScreen ZLYTE", "format": "biochemical", "settings": "INX-0315 at 100nM", "how_it_was_run": "as §3"}, "[24]": {"target": "T21, AKT2 (PKB beta) (Homo sapiens, UniProt P31751)", "T21 construct": "purchased Thermo Fisher Scientific SelectScreen (plus Nanosyn / Reaction Biology for CDK/cyclin lines)", "T21 sequence (P31751 whole entry)": "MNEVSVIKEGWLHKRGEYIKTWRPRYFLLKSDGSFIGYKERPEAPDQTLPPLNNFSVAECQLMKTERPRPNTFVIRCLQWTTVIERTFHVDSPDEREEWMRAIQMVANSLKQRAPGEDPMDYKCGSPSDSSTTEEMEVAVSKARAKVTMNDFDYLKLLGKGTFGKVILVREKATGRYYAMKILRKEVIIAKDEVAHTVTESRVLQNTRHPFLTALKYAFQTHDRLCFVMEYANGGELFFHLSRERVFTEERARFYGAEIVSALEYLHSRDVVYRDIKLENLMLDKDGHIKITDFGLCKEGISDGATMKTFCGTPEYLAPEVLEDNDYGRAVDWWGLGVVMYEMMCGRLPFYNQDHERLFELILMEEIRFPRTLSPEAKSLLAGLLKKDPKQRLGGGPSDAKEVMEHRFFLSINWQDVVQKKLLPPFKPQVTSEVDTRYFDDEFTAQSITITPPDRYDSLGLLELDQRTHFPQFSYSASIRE", "assay": "SelectScreen ZLYTE", "format": "biochemical", "settings": "INX-0315 at 100nM", "how_it_was_run": "as §3"}}, "data": [{"smiles": "NS(=O)(=O)c1ccc(Nc2ncc3cc4n(c3n2)C2(CCCCC2)C(=O)NN4)cc1", "note": "[INX-315]", "values": [{"measurement": "tumor growth", "setting": "[1]", "value": "slowed tumor growth modestly"}, {"measurement": "tumor growth", "setting": "[2]", "value": "significantly inhibited"}, {"measurement": "tumor growth", "setting": "[3]; 100 mg/kg twice daily", "value": "tumor regression"}, {"measurement": "tumor growth", "setting": "[3]; all other treatment groups: 25, 50 mg/kg twice daily, 100 mg/kg once a day", "value": "significant growth inhibition"}, {"measurement": "inhibition at 0.1 µM", "setting": "[4]", "value": 84, "unit": "%"}, {"measurement": "inhibition at 0.1 µM", "setting": "[5]", "value": 0, "unit": "%"}, {"measurement": "inhibition at 0.1 µM", "setting": "[6]", "value": 55, "unit": "%"}, {"measurement": "inhibition at 0.1 µM", "setting": "[7]", "value": 3, "unit": "%"}, {"measurement": "inhibition at 0.1 µM", "setting": "[8]", "value": 21, "unit": "%"}, {"measurement": "inhibition at 0.1 µM", "setting": "[9]", "value": 0, "unit": "%"}, {"measurement": "inhibition at 0.1 µM", "setting": "[10]", "value": 23, "unit": "%"}, {"measurement": "inhibition at 0.1 µM", "setting": "[11]", "value": 6, "unit": "%"}, {"measurement": "inhibition at 0.1 µM", "setting": "[12]", "value": -5, "unit": "%"}, {"measurement": "inhibition at 0.1 µM", "setting": "[13]", "value": 1, "unit": "%"}, {"measurement": "inhibition at 0.1 µM", "setting": "[14]", "value": -1, "unit": "%"}, {"measurement": "inhibition at 0.1 µM", "setting": "[15]", "value": 5, "unit": "%"}, {"measurement": "inhibition at 0.1 µM", "setting": "[16]", "value": 4, "unit": "%"}, {"measurement": "inhibition at 0.1 µM", "setting": "[17]", "value": 0, "unit": "%"}, {"measurement": "inhibition at 0.1 µM", "setting": "[18]", "value": 3, "unit": "%"}, {"measurement": "inhibition at 0.1 µM", "setting": "[19]", "value": 16, "unit": "%"}, {"measurement": "inhibition at 0.1 µM", "setting": "[20]", "value": 10, "unit": "%"}, {"measurement": "inhibition at 0.1 µM", "setting": "[21]", "value": -3, "unit": "%"}, {"measurement": "inhibition at 0.1 µM", "setting": "[22]", "value": 3, "unit": "%"}, {"measurement": "inhibition at 0.1 µM", "setting": "[23]", "value": 9, "unit": "%"}, {"measurement": "inhibition at 0.1 µM", "setting": "[24]", "value": 1, "unit": "%"}]}]}
